From the SangsterLogP compilation

**Q.** With FCC(F)(F)Cl as the compound, how does the logP read?
**A.** 1.45

**Q.** For FC(F)C(F)(F)F, which logP is on record?
**A.** 1.45

**Q.** For FC(Cl)C(F)(F)F (stereo unspecified), which logP is on record?
**A.** 1.75

**Q.** For FC(F)=C(F)C(F)(F)F, which logP is on record?
**A.** 1.98

**Q.** Which logP does the source give for FC(F)=CCl here?
**A.** 1.52

**Q.** For FC(C(F)(F)F)C(F)(F)F, which logP is on record?
**A.** 2.22

**Q.** Which logP does the source give for CC(F)(Cl)Cl here?
**A.** 1.95

**Q.** Which logP does the source give for FCC(F)Cl (stereo unspecified) here?
**A.** 1.62

**Q.** For FC(F)(F)F, which logP is on record?
**A.** 1.36

**Q.** With FC(Cl)(Cl)Cl as the compound, how does the logP read?
**A.** 2.26

**Q.** For FCC(F)(F)F, which logP is on record?
**A.** 1.06
